Data from patent US20230338454A1, “FORSYTHIA SUSPENSA COMPONENT AND OPTIONAL PANAX GINSENG COMPONENT AND THE APPLICATION” (priority 2020, published 2023).
Where two headings read alike, the source gives them in different places.

What was measured:
Influenza virus [1] = assay: Effect of drugs on viral cytopathic effect, effective antiviral rate (ER%); type: cell-based
Parainfluenza virus [2] = assay: as above; type: cell-based; settings: Vero cells, 100TCID50, drug at maximum non-toxic concentration, 72 h, MTT
[3] = tested on: respiratory syncytial virus (RSV); assay: as above; type: cell-based; settings: Vero cells, 100TCID50, drug at maximum non-toxic concentration, 72 h, MTT
[4] = tested on: Herpes simplex virus type 1 (HSV-1); assay: as above; type: cell-based; settings: Vero cells, 100TCID50, drug at maximum non-toxic concentration, 72 h, MTT
Adenovirus (AdV) = assay: as above; type: cell-based; settings: Vero cells, 100TCID50, drug at maximum non-toxic concentration, 72 h, MTT
enterovirus 71 (EV71) = assay: as above; type: cell-based; settings: Vero cells, 100TCID50, drug at maximum non-toxic concentration, 72 h, MTT
Coxsackievirus B3 (CVB3) = assay: as above; type: cell-based; settings: Vero cells, 100TCID50, drug at maximum non-toxic concentration, 72 h, MTT
influenza virus [5] = type: in vivo, Kunming mice; settings: for Lung index (x̅ ±S) / Lung index Inhibitory rate (%): 13.0 mg/kg/day by gavage, 5 days
parainfluenza virus [6] = type: in vivo, Kunming mice
influenza virus [7] = type: in vivo, Kunming mice; settings: 13.0 mg/kg/day by gavage, 5 days
[8] = tested on: sweat secretion of rat paw; assay: Sweat secretion of rat paw (staining method); type: in vivo, Wistar rats; settings: of 10 rats; dose not printed, gavage
Text: There are sweat glands on the plantar skin of rats, so the changes in sweat secretion can be observed by the purple reaction between the iodine-starch mixture and the sweat. Five hundred Wistar rats, half male and half female, weighing 120-150 g, were taken in the study. […] The rats were placed in a homemade rat-fixing bag to expose both hind limbs. The dirt on the right paw was gently scrubbed with a cotton swab dipped in absolute ethanol. Except for the pilocarpine solution, which was given by subcutaneous injection, other groups were administered by gavage. One hour after administration (30 min after administration in the pilocarpine group), the sweat secreted from the right paw of rats in each group was gently cleaned with a dry cotton swab before the study and during struggling. The right paw was coated with Wotan-[…] reagent A solution (dissolve 2 g of iodine in 100 mL of absolute ethanol) and then coated with Wotan-[…] reagent B solution (mix 50 g of soluble starch and 100 mL of Ricinus conununis oil well) after reagent A was fully absorbed. […] At the end of the test, a rank-sum test was used to analyze the differences among the groups.

[9] = tested on: epithelial cells of plantar sweat glands of rats; assay: Sweat secretion of rat paw (histomorphology observation method); type: in vivo, Wistar rats; settings: 1 h after gavage, dose not given
Text: After sweat glands activation in rats, besides the increase of sweat secretion, the morphology of the epithelial cells of the sweat glands changes accordingly. Under the optical microscope, the increase and enlargement of vacuoles in the epithelial cells of the sweat glands are observed. Under an electron microscope, the enlarged vacuoles appear to be due to swelling and rupture of mitochondria, enlargement of fusion and secretory vesicles in the epithelial cells of sweat glands. The secretory activity of sweat glands could be understood by observing the histomorphology of the epithelial cells of plantar sweat glands of rats. Three hundred Wistar rats, half male and half female, weighing 120-160 g. were taken in the study. […] Except for the pilocarpine solution given by subcutaneous injection, other groups were administered by gavage. One hour after the control group was given 0.5% carboxymethyl cellulose, 30 min after the positive drug group was given pilocarpine, and 1 h after the administration of forsythin, ginsenoside Rg3 and the panax ginseng-forsythia suspensa composition, the right hind limb was immediately cut off at the level of the ankle joint. […] Observations were made under an optical microscope for changes in the epithelial cells of the plantar sweat glands of rats in each group, mainly the incidence of vacuoles. The statistical processing was performed by X^2 test, and differences among the groups were compared. The above study was repeated for 3 times.

[10] = tested on: fever induced by beer yeast; assay: Fever induced by beer yeast in rats; type: in vivo, Wistar rats; settings: 10 mg/kg; for Body temperature change (%) (antipyretic percentage), time post-dose 1 h / Body temperature, time post-dose 1 h: 1 h post-dose; for Body temperature change (%) (antipyretic percentage), time post-dose 2 h / Body temperature, time post-dose 2 h: 2 h post-dose; for Body temperature change (%) (antipyretic percentage), time post-dose 3 h / Body temperature, time post-dose 3 h: 3 h post-dose; for Body temperature change (%) (antipyretic percentage), time post-dose 4 h / Body temperature, time post-dose 4 h: 4 h post-dose
[11] = tested on: mouse splenic lymphocytes; assay: ConA-induced mouse splenic lymphocyte transformation test; type: in vivo, Kunming mice; settings: 144 mg/kg; gavage once daily for 30 days; mice; ABSa-ABSb at 570 nm
Protocol: One hundred and fifty-two healthy male mice were subjected to acclimation for 4 days before they were randomly divided into 19 groups: the negative control group, positive control group, forsythin group, 20(R)-ginsenoside Rg3 group, high, middle and low dose groups of panax ginseng-forsythia suspensa composition. […] The drugs were given by gavage, once daily for 30 days, and the negative control group was given the same volume of water. At 1 h after the last dose, the spleens of animals of each group were aseptically excised to prepare splenocyte suspension. After diluting the splenocyte suspension to a concentration of 3×10^6 cells/mL, the splenocyte suspension was divided into 2 aliquots.Each of the aliquot was transferred into two 24-well culture plates at a volume of 1 mL/well followed by addition of 75 µL of ConA solution (a) was added to one well, and the other well was used as control (b). The wells were cultured at 37° C. for 72 h. Then, thiazolyl blue (MTT) was added 4 h before the end of the culture. After incubation, acidic isopropanol was added, and the absorbance (ABS) of each solution was measured at 570 nm after it was mixed well. The proliferativity was calculated using the formula: proliferativity = ABSa-ABSb. Each dose group of the test sample was compared with the negative control group.

Vero cells = assay: Cytotoxicity test of drugs on Vero cells (MTT); settings: 72 h
[12] = mice infected with parainfluenza virus, 13.0 mg/kg/day by gavage, 5 days
[13] = mice infected with influenza virus
[14] = lung suspension, mice infected with influenza virus

Row | Compound | Effective Antiviral Rates (ER%) Parainfluenza virus (Parainfluenza virus [2]) | Effective Antiviral Rates (ER%) RSV [3] | Effective Antiviral Rates (ER%) HSV-I [4] | Effective Antiviral Rates (ER%) ADV (Adenovirus (AdV)) | Effective Antiviral Rates (ER%) EV71 (enterovirus 71 (EV71)) | Effective Antiviral Rates (ER%) CVB3 (Coxsackievirus B3 (CVB3)) | Number of animals with sweat spots of each grade at 1 min after application of solution B: grade + [8] [animals] | Number of animals with sweat spots of each grade at 1 min after application of solution B: grade ++ [8] [animals] | Number of animals with sweat spots of each grade at 1 min after application of solution B: grade +++ [8] [animals] | Number of animals with sweat spots of each grade at 1 min after application of solution B: grade +++ (fifth grade column) [8] [animals] | Number of animals with sweat spots of each grade at 1 min after application of solution B: grade - [8] [animals] | Number of animals with sweat spots of each grade at 5 min after application of solution B: grade + [8] [animals] | Number of animals with sweat spots of each grade at 5 min after application of solution B: grade ++ [8] [animals] | Number of animals with sweat spots of each grade at 5 min after application of solution B: grade +++ [8] [animals] | Number of animals with sweat spots of each grade at 5 min after application of solution B: grade +++ (fifth grade column) [8] [animals] | Number of animals with sweat spots of each grade at 5 min after application of solution B: grade - [8] [animals] | Number of vacuolar sweat glands (number) [9] [number] | Vacuolation rate (%) [9] | Body temperature change (%) (antipyretic percentage), time post-dose 1 h [10] | Body temperature, time post-dose 1 h [10] [°C] | also measured
1 | CC(C)=CCC[C@](C)(O)[C@H]1CC[C@]2(C)[C@@H]1[C@H](O)C[C@@H]1[C@@]3(C)CC[C@H](O[C@@H]4O[C@H](CO)[C@@H](O)[C@H](O)[C@H]4O[C@@H]4O[C@H](CO)[C@@H](O)[C@H](O)[C@H]4O)C(C)(C)[C@@H]3CC[C@]12C [20(R)-Ginsenoside Rg3, 20(R)-ginsenoside Rg3] | 82.21^∗∗ % | 79.42^∗∗ % | 83.61^∗∗ % | 51.07% | 74.66^∗∗ % | 53.75% | 1 | 3 | 3 | 3 | 0 | 1 | 3 | 2 | 4 | 0 | 79 | 20.26^∗∗ % | -0.3±0.41 | 39.31±0.48 | Effective Antiviral Rates (ER%) Influenza virus (Influenza virus [1]): 74.06^∗∗ %; Lung index (x̅ ±S) (influenza virus [5]; […]): 1.302±0.046; Lung index Inhibitory rate (%) (influenza virus [5]; […]): 12.51%; Lung index compared with the infection model group, in words (influenza virus [5]; mouse, in vivo): decreased significantly; Lung index (x̅ ±S) (parainfluenza virus [6]; [12]): 1.357±0.050; Lung index Inhibitory rate (%) (parainfluenza virus [6]; [12]): 14.69%; Lung index compared with the infection model group, in words (parainfluenza virus [6]; mice infected with parainfluenza virus, P < 0.05 or P < 0.01): decreased significantly; Hemagglutinin titer (InX) (influenza virus [7]; […]): 22.61±1.059; Inhibitory rate (%) of hemagglutination titer (influenza virus [7]; […]): 30.22%; Body temperature change (%) (antipyretic percentage), time post-dose 2 h [10]: -0.69±0.93^∗ %; Body temperature, time post-dose 2 h [10]: 39.04±0.45 °C; Body temperature change (%) (antipyretic percentage), time post-dose 3 h [10]: -1.03±1.18^∗ %; Body temperature, time post-dose 3 h [10]: 38.91±0.40 °C; Body temperature change (%) (antipyretic percentage), time post-dose 4 h [10]: -1.55±1.23^∗ %; Body temperature, time post-dose 4 h [10]: 38.70±0.31 °C; Proliferation ability (×10^-2) [11]: 23.9±11.70 ×10^-2; Half toxic concentration (TC50) (Vero cells): 310 µg/mL; Maximum non-toxic concentration (TC0) (Vero cells): 0.0048 g/L
2 | COc1ccc([C@H]2OCC3C2CO[C@H]3c2ccc(O[C@@H]3OC(CO)[C@@H](O)[C@H](O)C3O)c(OC)c2)cc1OC (some centres unmarked) [Forsythin] | 84.96^∗∗ % | 80.40^∗∗ % | 85.00^∗∗ % | 75.14^∗∗ % | 84.85^∗∗ % | 75.27^∗∗ % | 2 | 2 | 2 | 4 | 0 | 1 | 2 | 2 | 5 | 0 | 86 | 22.15^∗∗ % | -0.60±0.39 | 39.13±0.52 | Effective Antiviral Rates (ER%) Influenza virus (Influenza virus [1]; Vero cells, 100TCID50, drug at maximum non-toxic concentration, 72 h, MTT): 75.38^∗∗ %; Lung index (x̅ ±S) (influenza virus [5]; [13]): 1.280±0.040; Lung index Inhibitory rate (%) (influenza virus [5]; [13]): 14.00%; Lung index (x̅ ±S) (parainfluenza virus [6]; mouse, in vivo, 13 mg/kg/day): 1.335±0.062; Lung index Inhibitory rate (%) (parainfluenza virus [6]; mouse, in vivo, 13 mg/kg/day): 16.10%; Hemagglutinin titer (InX) (influenza virus [7]; [14]): 22.06±1.120; Inhibitory rate (%) of hemagglutination titer (influenza virus [7]; [14]): 31.90%; Body temperature change (%) (antipyretic percentage), time post-dose 2 h [10]: -0.92±0.93^∗∗ %; Body temperature, time post-dose 2 h [10]: 38.77±0.42 °C; Body temperature change (%) (antipyretic percentage), time post-dose 3 h [10]: -1.29±1.18^∗ %; Body temperature, time post-dose 3 h [10]: 38.63±0.40 °C; Body temperature change (%) (antipyretic percentage), time post-dose 4 h [10]: -1.70±1.23^∗ %; Body temperature, time post-dose 4 h [10]: 38.46±0.31 °C; Proliferation ability (×10^-2) [11]: 28.66±12.63 ×10^-2; Half toxic concentration (TC50) (Vero cells): 550 µg/mL; Maximum non-toxic concentration (TC0) (Vero cells): 0.0066 g/L
